Columns and labels:
DU-145 = assay: NCI human tumor cell panel: DU-145 (Prostate Cancer); assay type: cell-based; conditions: for GI50: DU-145, read-out: Log10 GI50 (converted); for IC (TGI): DU-145, read-out: Log10 TGI (converted)
SK-MEL-2 = assay: NCI human tumor cell panel: SK-MEL-2 (Melanoma); assay type: cell-based; conditions: for GI50: SK-MEL-2, read-out: Log10 GI50 (converted); for IC (TGI): SK-MEL-2, read-out: Log10 TGI (converted)
OVCAR-8 = assay: NCI human tumor cell panel: OVCAR-8 (Ovarian Cancer); assay type: cell-based; conditions: for GI50: OVCAR-8, read-out: Log10 GI50 (converted); for IC (TGI): OVCAR-8, read-out: Log10 TGI (converted)
NCI-H226 = assay: NCI human tumor cell panel: NCI-H226 (Non-Small Cell Lung Cancer); assay type: cell-based; conditions: NCI-H226, read-out: Log10 GI50 (converted)
KM12 = assay: NCI human tumor cell panel: KM12 (Colon Cancer); assay type: cell-based; conditions: for IC (TGI): KM12, read-out: Log10 TGI (converted)
COLO 205 = assay: NCI human tumor cell panel: COLO 205 (Colon Cancer); assay type: cell-based; conditions: for GI50: COLO 205, read-out: Log10 GI50 (converted); for IC (TGI): COLO 205, read-out: Log10 TGI (converted)
786-0 = assay: NCI human tumor cell panel: 786-0 (Renal Cancer); assay type: cell-based; conditions: for IC (TGI): 786-0, read-out: Log10 TGI (converted)
SW-620 = assay: NCI human tumor cell panel: SW-620 (Colon Cancer); assay type: cell-based; conditions: for GI50: SW-620, read-out: Log10 GI50 (converted); for IC (TGI): SW-620, read-out: Log10 TGI (converted)
LOX IMVI = assay: NCI human tumor cell panel: LOX IMVI (Melanoma); assay type: cell-based; conditions: for GI50: read-out: Log10 GI50 (converted); for IC (TGI): read-out: Log10 TGI (converted)
BT-549 = assay: NCI human tumor cell panel: BT-549 (Breast Cancer); assay type: cell-based; conditions: for GI50: BT-549, read-out: Log10 GI50 (converted); for IC (TGI): BT-549, read-out: Log10 TGI (converted)
IGROV1 = assay: NCI human tumor cell panel: IGROV1 (Ovarian Cancer); assay type: cell-based; conditions: for GI50: IGROV-1, IGROV1, read-out: Log10 GI50 (converted); for IC (TGI): IGROV-1, IGROV1, read-out: Log10 TGI (converted)
MDA-MB-231/ATCC = assay: NCI human tumor cell panel: MDA-MB-231/ATCC (Breast Cancer); assay type: cell-based; conditions: Homo sapiens, MDA-MB-231, MDA-MB-231/ATCC; for GI50: read-out: Log10 GI50 (converted); for IC (TGI): read-out: Log10 TGI (converted)
K-562 = assay: NCI human tumor cell panel: K-562 (Leukemia); assay type: cell-based; conditions: for GI50: K562, K-562, read-out: Log10 GI50 (converted); for IC (TGI): K562, K-562, read-out: Log10 TGI (converted)
T-47D = assay: NCI human tumor cell panel: T-47D (Breast Cancer); assay type: cell-based; conditions: T47D; for GI50: read-out: Log10 GI50 (converted); for IC (TGI): read-out: Log10 TGI (converted)
NCI-H522 = assay: NCI human tumor cell panel: NCI-H522 (Non-Small Cell Lung Cancer); conditions: for GI50: NCI-H522, read-out: Log10 GI50 (converted); for IC (TGI): NCI-H522, read-out: Log10 TGI
SNB-75 = assay: NCI human tumor cell panel: SNB-75 (CNS Cancer); assay type: cell-based; conditions: for GI50: SNB-75, read-out: Log10 GI50 (converted); for IC (TGI): SNB-75, read-out: Log10 TGI (converted)
EKVX = assay: NCI human tumor cell panel: EKVX (Non-Small Cell Lung Cancer); assay type: cell-based; conditions: for GI50: read-out: Log10 GI50 (converted); for IC (TGI): read-out: Log10 TGI (converted)
SN12C = assay: NCI human tumor cell panel: SN12C (Renal Cancer); assay type: cell-based; conditions: for GI50: read-out: Log10 GI50 (converted); for IC (TGI): read-out: Log10 TGI (converted)
SK-OV-3 = assay: NCI human tumor cell panel: SK-OV-3 (Ovarian Cancer); assay type: cell-based; conditions: for GI50: SK-OV-3, read-out: Log10 GI50 (converted); for IC (TGI): SK-OV-3, read-out: Log10 TGI (converted)
UO-31 = assay: NCI human tumor cell panel: UO-31 (Renal Cancer); assay type: cell-based; conditions: for GI50: UO-31, read-out: Log10 GI50 (converted); for IC (TGI): UO-31, read-out: Log10 TGI (converted)
OVCAR-5 = assay: NCI human tumor cell panel: OVCAR-5 (Ovarian Cancer); assay type: cell-based; conditions: for GI50: OVCAR-5, read-out: Log10 GI50 (converted)
HCT-15 = assay: NCI human tumor cell panel: HCT-15 (Colon Cancer); assay type: cell-based; conditions: for GI50: HCT-15, read-out: Log10 GI50 (converted); for IC (TGI): HCT-15, read-out: Log10 TGI (converted)
HCC-2998 = assay: NCI human tumor cell panel: HCC-2998 (Colon Cancer); assay type: cell-based; conditions: for GI50: HCC-2998, read-out: Log10 GI50 (converted); for IC (TGI): HCC-2998, read-out: Log10 TGI (converted)
CAKI-1 = assay: NCI human tumor cell panel: CAKI-1 (Renal Cancer); assay type: cell-based; conditions: for GI50: CAKI-1, read-out: Log10 GI50 (converted); for IC (TGI): CAKI-1, read-out: Log10 TGI (converted)
RPMI-8226 = assay: NCI human tumor cell panel: RPMI-8226 (Leukemia); assay type: cell-based; conditions: for GI50: RPMI-8226, read-out: Log10 GI50 (converted); for IC (TGI): RPMI-8226, read-out: Log10 TGI
[1] = tested on: panel of sixty different human tumor cell lines; assay: NCI human tumor cell panel: whole panel (mean graph summary); conditions: for GI50 / CC50: Homo sapiens; for GI50: read-out: Log10 GI50, MG_MID, mean over the panel (converted); for CC50: read-out: Log10 LC50, MG_MID, mean over the panel (converted); for Log10 TGI, MG_MID: mean over the panel; for Log10 TGI, Delta / Log10 TGI, Range: whole panel

O=Cc1ccc(-c2ccc(-c3ccc(C=O)[se]3)s2)s1 [compound 688829] was tested, and the GI50 (DU-145) was greater than 100 µM, the IC (TGI) (DU-145) was greater than 100 µM and the GI50 (SK-MEL-2) was 33.9 µM. For the same compound, the IC (TGI) (SK-MEL-2) was greater than 100 µM, the GI50 (OVCAR-8) was 15.1 µM and the IC (TGI) (OVCAR-8) was 93.3 µM. The GI50 (NCI-H226) was 891 nM, the IC (TGI) (KM12) was greater than 100 µM and the GI50 (COLO 205) was 12 µM. It also gave an IC (TGI) (COLO 205) of 33.1 µM, an IC (TGI) (786-0) of 26.9 µM and a GI50 (SW-620) of 832 nM. The IC (TGI) (SW-620) was greater than 100 µM, the GI50 (LOX IMVI) was 16.6 µM and the IC (TGI) (LOX IMVI) was greater than 100 µM. The GI50 (BT-549) was 56.2 µM, the IC (TGI) (BT-549) was greater than 100 µM and the GI50 (IGROV1) was 178 nM. For the same compound, the IC (TGI) (IGROV1) was 2.45 µM, the GI50 (MDA-MB-231/ATCC) was 23.4 µM and the IC (TGI) (MDA-MB-231/ATCC) was 67.6 µM. It also gave a GI50 (K-562) of 251 nM, an IC (TGI) (K-562) greater than 100 µM and a GI50 (T-47D) of 339 nM. For the same compound, the IC (TGI) (T-47D) was greater than 100 µM, the GI50 (NCI-H522) was 11.2 µM and the IC (TGI) (NCI-H522) was 39.8 µM. For the same compound, the GI50 (SNB-75) was 75.9 µM, the IC (TGI) (SNB-75) was greater than 100 µM and the GI50 (EKVX) was greater than 100 µM. For the same compound, the IC (TGI) (EKVX) was greater than 100 µM, the GI50 (SN12C) was 28.2 µM and the IC (TGI) (SN12C) was 85.1 µM. The GI50 (SK-OV-3) was 26.3 µM, the IC (TGI) (SK-OV-3) was greater than 100 µM and the GI50 (UO-31) was greater than 100 µM. For the same compound, the IC (TGI) (UO-31) was greater than 100 µM, the GI50 (OVCAR-5) was 123 nM and the IC (TGI) (OVCAR-5; OVCAR-5, read-out: Log10 TGI (converted)) was 0.501 µM. For the same compound, the GI50 (HCT-15) was 22.9 µM, the IC (TGI) (HCT-15) was greater than 100 µM and the GI50 (HCC-2998) was 389 nM. The IC (TGI) (HCC-2998) was greater than 100 µM, the GI50 (CAKI-1) was 191 nM and the IC (TGI) (CAKI-1) was 0.501 µM. The GI50 (RPMI-8226) was 38.9 µM, the IC (TGI) (RPMI-8226) was greater than 100 µM and the GI50 [1] was 5.37 µM. For the same compound, the CC50 [1] was 87.1 µM, the “Log10 TGI, MG_MID” value [1] was −4.35 and the “Log10 TGI, Delta” value [1] was 2.75. For the same compound, the “Log10 TGI, Range” value [1] was 3.10.

With OCc1ccc(-c2ccc(-c3ccc(CO)[se]3)s2)s1 [compound 688830] the GI50 (DU-145) was 22.9 µM, the IC (TGI) (DU-145) was greater than 100 µM and the GI50 (SK-MEL-2) was 39.8 µM. For the same compound, the IC (TGI) (SK-MEL-2) was greater than 100 µM, the GI50 (OVCAR-8) was 6.92 µM and the IC (TGI) (OVCAR-8) was 30.9 µM. It also gave a GI50 (KM12; KM12, read-out: Log10 GI50 (converted)) of 47.9 µM, an IC (TGI) (KM12) greater than 100 µM and a GI50 (COLO 205) of 0.447 µM. It also gave an IC (TGI) (COLO 205) of 5.5 µM, a GI50 (786-0; 786-0, read-out: Log10 GI50 (converted)) of 6.46 µM and an IC (TGI) (786-0) of 22.9 µM. It also gave a GI50 (SW-620) of 39.8 nM, an IC (TGI) (SW-620) of 25.1 µM and a GI50 (LOX IMVI) of 13.5 µM. It also gave an IC (TGI) (LOX IMVI) of 27.5 µM, a GI50 (BT-549) greater than 100 µM and an IC (TGI) (BT-549) greater than 100 µM. For the same compound, the GI50 (IGROV1) was 14.1 nM, the IC (TGI) (IGROV1) was 0.174 µM and the GI50 (MDA-MB-231/ATCC) was 12.6 µM. For the same compound, the IC (TGI) (MDA-MB-231/ATCC) was 35.5 µM, the GI50 (K-562) was 72.4 nM and the IC (TGI) (K-562) was 17.4 µM. For the same compound, the GI50 (T-47D) was 288 nM, the IC (TGI) (T-47D) was 57.5 µM and the GI50 (NCI-H522) was greater than 100 µM. It also gave an IC (TGI) (NCI-H522) greater than 100 µM, a GI50 (SNB-75) of 25.7 µM and an IC (TGI) (SNB-75) greater than 100 µM. It also gave a GI50 (EKVX) of 19.5 µM, an IC (TGI) (EKVX) of 66.1 µM and a GI50 (SN12C) of 49 µM. It also gave an IC (TGI) (SN12C) greater than 100 µM, a GI50 (SK-OV-3) of 3.24 µM and an IC (TGI) (SK-OV-3) of 19.5 µM. The GI50 (UO-31) was greater than 100 µM, the IC (TGI) (UO-31) was greater than 100 µM and the GI50 (OVCAR-5) was 22.9 nM. It also gave a GI50 (HCT-15) of 28.8 µM, an IC (TGI) (HCT-15) greater than 100 µM and a GI50 (HCC-2998) of 63.1 nM. It also gave an IC (TGI) (HCC-2998) of 11.5 µM, a GI50 (CAKI-1) of less than 10 nM and an IC (TGI) (CAKI-1) of 0.0282 µM. It also gave a GI50 (RPMI-8226) of 37.2 µM, an IC (TGI) (RPMI-8226) greater than 100 µM and a GI50 [1] of 2.29 µM. For the same compound, the CC50 [1] was 69.2 µM, the “Log10 TGI, MG_MID” value [1] was −4.62 and the “Log10 TGI, Delta” value [1] was 2.99. The “Log10 TGI, Range” value [1] was 3.61.
